# From patent US20100048728A1, “POLYCYCLIC DIANTHRAQUINONES AS INHIBITORS OF INFLAMMATORY CYTOKINES” (HY BIOPHARMA INC., priority 2006, published 2010)
# Assays:
# [1] = system: Herpes simplex type 1 virus induced skin inflammation; experiment: Inflammatory skin reactions induced by Herpes simplex type 1 virus in guinea pig dorsa; conditions: topical 1.2 or 1.7 μg Hypericin/gr Vaseline, 3× per day for 3 days, evaluated after 96 hrs
# Mouse L cells [2] = experiment: Protection from TNFα-induced cell death, MTT assay; format: cell-based
# Method: Mouse L cells (ATCC) were cultured in complete MEM medium in 37° C. incubator with 5% CO2 and 95% humidity. The culture cells were divided to […]: i. untreated control ii. Hypericin 0.5 μg/ml iii. Hypericin 1 μg/ml iv. TNFα10 u/ml v. TNFα25 u/ml vi. TNFα10 u/ml and Hypericin 0.5 μg/ml vii. TNFα10 u/ml and Hypericin 1 μg/ml viii. TNFα 25 u/ml and Hypericin 0.5 μg/ml ix. TNFα25 u/ml and Hypericin 1 μg/ml.
# Hypericin was applied to the cells 48 hr prior to TNFα administration. The experiment was terminated 24 hrs after TNF administration and cell viability evaluated by MTT assay.
# Mouse L cells [3] = experiment: Protection from TNFα-induced cell death, Hemacolor assay; format: cell-based
# Method: Mouse L cells (ATCC) were cultured in complete MEM medium in 37° C. incubator with 5% CO2 and 95% humidity. The culture cells were divided to 6 separate groups: i. untreated control ii. TNFα25 u/ml iii. TNFα25 u/ml and Hypericin 0.5 μg/ml iv. TNFα25 u/ml and Hypericin 1 μg/ml v. TNFα25 u/ml and Hypericin 5 μg/ml vi. TNFα 25 u/ml and Hypericin 7.5 μg/ml.
# Hypericin was applied to the cells 48 hr prior to TNFα administration. The experiment was terminated 24 hrs after TNF administration and cell viability evaluated using the Hemacolor assay.
# [4] = system: acute IBD generated in BALB/C mice by DSS; experiment: DSS-induced acute inflammatory bowel disease (IBD) in mice, colon length; format: in vivo
# Method: 36 male BABL/c mice anesthetized with Ketamine & Xylazine, are divided into six groups: • Control • Dextran sulfate sodium salt (DSS) alone −8000 MW • DSS with Hypericin 25 μg/animal • DSS with Hypericin 75 μg/animal • Hypericin 25 μg/animal • Hypericin 75 μg/animal
# Acute IBD was generated in BALB/C mice (6 mice per group) by DSS administered via the drinking water (3.5% w/v) for 7 days. Hypericin was administered to these animals intraperitoneally at doses of 25 and 75 μg/mouse beginning 48 hrs prior to initiation of DSS administration and at 48 hr intervals thereafter. After 16 days the mice were sacrificed with high dose of sodium pentobarbital, the gastro-intestinal tract removed, its overall length measured and evaluated compared to control untreated healthy mice.
smiles,measurement,setting,value
"Cc1cc(O)c2c(=O)c3c(O)cc(O)c4c5c(O)cc(O)c6c(=O)c7c(O)cc(C)c8c1c2c(c34)c(c78)c65 [Hypericin, hypericin]",inflammatory erythema following infection with herpes virus,[1],significantly inhibited
same,prevention of TNFα induced cell death (MTT),"Mouse L cells [2]; Hypericin 0.5 μg/ml 48 hr before TNFα 10 u/ml, P≦0.025758",prevented cell death significantly
same,prevention of TNFα induced cell death (MTT),"Mouse L cells [2]; Hypericin 0.5 μg/ml 48 hr before TNFα 25 u/ml, P≦0.023446",prevented cell death significantly
same,prevention of TNFα induced cell death (MTT),"Mouse L cells [2]; Hypericin 1 μg/ml 48 hr before TNFα 10 u/ml, P≦0.014777",prevented cell death significantly
same,prevention of TNFα induced cell death (MTT),"Mouse L cells [2]; Hypericin 1 μg/ml 48 hr before TNFα 25 u/ml, P≦0.047198",prevented cell death significantly
same,cell viability (MTT),"Mouse L cells [2]; Hypericin alone, compared to the control group",did not alter cell viability
same,prevention of TNFα induced cell death (Hemacolor),"Mouse L cells [3]; Hypericin 0.5 μg/ml 48 hr before TNFα 25 u/ml, P≦0.0045",prevented cell death significantly
same,prevention of TNFα induced cell death (Hemacolor),"Mouse L cells [3]; Hypericin 1 μg/ml 48 hr before TNFα 25 u/ml, P≦0.00049",prevented cell death significantly
same,prevention of TNFα induced cell death (Hemacolor),"Mouse L cells [3]; Hypericin 5 μg/ml 48 hr before TNFα 25 u/ml, P≦0.00105",prevented cell death significantly
same,prevention of TNFα induced cell death (Hemacolor),"Mouse L cells [3]; Hypericin 7.5 μg/ml 48 hr before TNFα 25 u/ml, P≦0.00159",prevented cell death significantly
same,prevention of TNFα induced cell death (Hemacolor),Mouse L cells [3]; Hypericin 15 μg/ml before TNFα 25 u/ml,did not prevent cell death
same,colon length,[4]; Hypericin 25 μg/mouse without DSS,did not alter the colon length
same,colon length,"[4]; Hypericin 75 μg/mouse intraperitoneally with 3.5% DSS, after 16 days, DSS alone 8.016 cm, control 12.6 cm, P≦0.039 vs DSS alone",9.067 cm
same,colon length,[4]; Hypericin 75 μg/mouse without DSS,did not alter the colon length
